Laboratory results as given in publication PMC6514664, “Six New Coumarin Glycosides from the Aerial Parts of Gendarussa vulgaris” (Molecules, 2019).

Experiments:
[1] = test system: MCF-7 cell line; test: MTT cytotoxicity assay, MCF-7 cell line; assay type: cell-based, Human; settings: etoposide positive control
Protocol: (§1) The cytotoxic activities of all isolated compounds were evaluated by MTT assay.
(§2) According to the previous procedure, all isolated compounds were evaluated for cytotoxic activities against Eca-109, MCF-7, and HepG2 cell lines, as well as a normal human umbilical vein endothelial cell line (HUVEC) (Table 3). Etoposide was used as the positive control.
(§3) The UV spectra were measured on a Shimadzu UV-1700 spectrometer (Shimadzu Corporation, Kyoto, Japan). The IR spectra were measured on a Nicolet 10 Microscope Spectrometer (Thermo Scientific, San Jose, CA, USA). The 1D and 2D NMR spectra were recorded on Bruker-AC (E)-500 spectrometer (Bruker AM 500, Fällanden, Switzerland) using TMS as an internal standard. The HR-ESI-MS was determined on a Bruker microTOF-Q instrument (Bruker BioSpin, Rheinstetten, Germany). Column chromatography was performed with silica gel (200–300 mesh; Qingdao Marine Chemical Inc., Qingdao, China), sephadex LH-20 (GE Healthcare), ODS (50 µm; YMC Co. LTD., Kyoto, Japan.), AB-8 macroporous resin (Qinshi Science and Technology Ltd., Zhengzhou, China). Thin layer chromatography (TLC) was carried out on silica gel GF254 precoated plates (Qingdao Marine Chemical Inc., Qingdao, China), and spots were visualized under UV light. Preparative HPLC separations were performed on a SEP system (Beijing Sepuruisi scientific Co., Ltd., China) equipped with a variable-wavelength UV detector, using a YMC-Pack ODS-A column (250 × 20 mm, 5 μm). Chemical reagents for isolation were of analytical grade and purchased from Tianjin Siyou Co., Ltd., China. Biological reagents were from Sigma Company. Human heptocellular (HepG2), esophageal (Eca-109), and breast (MCF-7) cancer cell lines were from Institute of Materia Medica, Chinese Academy of Medical Sciences and Peking Union Medical College, China.

[2] = test system: Eca-109 cell line; test: MTT cytotoxicity assay, Eca-109 cell line; assay type: cell-based, Human; settings: Eca-109 esophageal cancer cell line, etoposide positive control
Protocol: as §1, §2, §3

[3] = test system: HepG2 cell line; test: MTT cytotoxicity assay, HepG2 cell line; assay type: cell-based, Human; settings: HepG2 hepatocellular cancer cell line, etoposide positive control
Protocol: as §1, §2, §3

[4] = MTT cytotoxicity assay, normal HUVEC cell line; assay type: cell-based; settings: HUVEC (normal human umbilical vein endothelial cells)
Protocol: (§4) According to the previous procedure [22], all isolated compounds were evaluated for cytotoxic activities against Eca-109, MCF-7, and HepG2 cell lines, as well as a normal human umbilical vein endothelial cell line (HUVEC) (Table 3). Etoposide was used as the positive control.

[5] = test system: normal human umbilical vein endothelial cell line (HUVEC); test: MTT cytotoxicity assay, normal HUVEC cell line; assay type: cell-based
Protocol: as §4

[6] = Homo sapiens, MCF7, MCF-7 breast cancer cell line

Row | Molecule | IC50 [1, 6] [µM] | IC50 ([2]; Homo sapiens) [µM] | IC50 ([3]; Homo sapiens) [µM] | IC50 [4] [µM] | IC50 [5] [µM] | IC50 ([1]; MCF-7 breast cancer cell line) [µM] | IC50 [2] [µM] | IC50 [3] [µM]
1 | COc1cc2ccc(=O)oc2cc1O[C@@H]1O[C@H](CO)[C@@H](O)[C@H](O[C@@H]2O[C@H](CO)[C@@H](O)[C@H](O)[C@H]2O)[C@H]1O [Compound 3, 7-[(3-O-β-D-glucopyranosyl-β-D-glucopyranosyl)oxy]-6-methoxycoumarin] | > 100 | > 100 | > 100 |  |  |  |  | 
2 | COc1cc2ccc(=O)oc2c(O[C@@H]2O[C@H](CO)[C@@H](O)[C@H](O)[C@H]2O)c1O[C@@H]1O[C@H](CO)[C@@H](O)[C@H](O)[C@H]1O [Compound 6, 7,8-bis(β-D-glucopyranosyloxy)-6-methoxycoumarin] | > 100 | > 100 | > 100 |  |  |  |  | 
3 | COc1cc2ccc(=O)oc2c(O)c1O [Compound 12, fraxetin] | 28.6 ± 1.37 | 20.4 ± 1.94 | 30.3 ± 1.18 | > 100 |  |  |  | 
4 | COc1cc2ccc(=O)oc2cc1O [Compound 13, scopoletin] | 61.6 ± 5.7 | 45.7 ± 3.55 | 53.7 ± 4.09 | > 100 |  |  |  | 
5 | COc1cc2ccc(=O)oc2c(O)c1OC [Compound 14, fraxidin] | 59.6 ± 5.24 | 41.1 ± 3.78 | > 100 | > 100 |  |  |  | 
6 | COc1cc2ccc(=O)oc2cc1OC [Compound 16, scoparone] | > 100 | > 100 | > 100 |  |  |  |  | 
7 | COc1cc([C@@H]2c3cc4c(cc3[C@@H](O[C@@H]3O[C@@H]5CO[C@@H](C)O[C@H]5[C@H](O)[C@H]3O)[C@H]3COC(=O)[C@H]23)OCO4)cc(OC)c1O [etoposide, reference compound] | 5.82 ± 0.49 | 20.5 ± 1.82 | 1.15 ± 0.09 |  |  |  |  | 
8 | cleomiscosin A [Compound 11] |  |  |  |  | > 100 | 35.3 ± 2.61 | 21 ± 1.85 | 43.7 ± 3.97
